Laboratory results as given in PubChem BioAssay (NCI).
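Method: 48-hour compound exposure of cells in 96-well plates, five concentrations, linear interpolation of endpoints. At the GI50, growth is halved. The concentration for full growth arrest is given as TGI.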

Experiments:
Assay in all cases: growth of human tumour cells (NCI), 48 h
DU-145 prostate = system: DU-145 prostate
HCT-116 colon = system: HCT-116 colon
OVCAR-4 ovarian = system: OVCAR-4 ovarian
K-562 leukemia = system: K-562 leukemia
A498 renal = system: A498 renal
TK-10 renal = system: TK-10 renal
KM12 colon = system: KM12 colon
UACC-257 melanoma = system: UACC-257 melanoma
U251 CNS = system: U251 CNS
SK-MEL-2 melanoma = system: SK-MEL-2 melanoma
M14 melanoma = system: M14 melanoma
RXF 393 renal = system: RXF 393 renal
NCI-H23 lung = system: NCI-H23 lung
UACC-62 melanoma = system: UACC-62 melanoma
SW-620 colon = system: SW-620 colon
HOP-62 NSCLC = system: HOP-62 NSCLC
CCRF-CEM leukemia = system: CCRF-CEM leukemia
SNB-75 CNS = system: SNB-75 CNS
NCI-H226 lung = system: NCI-H226 lung
SNB-19 CNS = system: SNB-19 CNS
OVCAR-5 ovarian = system: OVCAR-5 ovarian
MOLT-4 leukemia = system: MOLT-4 leukemia
CAKI-1 renal = system: CAKI-1 renal
A549 NSCLC = system: A549 NSCLC
T-47D breast = system: T-47D breast
COLO 205 colon = system: COLO 205 colon
SF-268 CNS = system: SF-268 CNS
RPMI-8226 leukemia = system: RPMI-8226 leukemia
OVCAR-3 ovarian = system: OVCAR-3 ovarian
NCI-H522 lung = system: NCI-H522 lung
HCC-2998 colon = system: HCC-2998 colon
SF-295 CNS = system: SF-295 CNS
MALME-3M melanoma = system: MALME-3M melanoma
HL-60(TB) leukemia = system: HL-60(TB) leukemia
SN12C renal = system: SN12C renal
MDA-MB-231 breast = system: MDA-MB-231 breast
786-0 renal = system: 786-0 renal
BT-549 breast = system: BT-549 breast
SK-MEL-28 melanoma = system: SK-MEL-28 melanoma
MDA-MB-435 = system: MDA-MB-435
UO-31 renal = system: UO-31 renal
EKVX NSCLC = system: EKVX NSCLC
ACHN renal = system: ACHN renal
SK-MEL-5 melanoma = system: SK-MEL-5 melanoma
NCI-H460 lung = system: NCI-H460 lung
MCF7 breast = system: MCF7 breast
OVCAR-8 ovarian = system: OVCAR-8 ovarian
NCI/ADR-RES ovarian = system: NCI/ADR-RES ovarian
SR leukemia = system: SR leukemia
SK-OV-3 ovarian = system: SK-OV-3 ovarian
HCT-15 colon = system: HCT-15 colon
HT29 colon = system: HT29 colon
IGROV1 ovarian = system: IGROV1 ovarian
PC-3 prostate = system: PC-3 prostate
LOX IMVI melanoma = system: LOX IMVI melanoma
SF-539 CNS = system: SF-539 CNS
HS 578T breast = system: HS 578T breast

COc1ccc2c(c1)CC[C@@H]1[C@@H]2CC[C@]2(C)C(c3ccsc3)=C(/C=C/C(=O)c3ccccc3)C[C@@H]12
GI50 (DU-145 prostate): > 100 µM
TGI (DU-145 prostate): > 100 µM
GI50 (HCT-116 colon): > 100 µM
TGI (HCT-116 colon): > 100 µM
GI50 (OVCAR-4 ovarian): > 100 µM
TGI (OVCAR-4 ovarian): > 100 µM
GI50 (K-562 leukemia): > 100 µM
TGI (K-562 leukemia): > 100 µM
GI50 (A498 renal): > 100 µM
TGI (A498 renal): > 100 µM
GI50 (TK-10 renal): > 100 µM
TGI (TK-10 renal): > 100 µM
GI50 (KM12 colon): > 100 µM
TGI (KM12 colon): > 100 µM
GI50 (UACC-257 melanoma): > 100 µM
TGI (UACC-257 melanoma): > 100 µM
GI50 (U251 CNS): > 100 µM
TGI (U251 CNS): > 100 µM
GI50 (SK-MEL-2 melanoma): > 100 µM
TGI (SK-MEL-2 melanoma): > 100 µM
GI50 (M14 melanoma): > 100 µM
TGI (M14 melanoma): > 100 µM
GI50 (RXF 393 renal): > 100 µM
TGI (RXF 393 renal): > 100 µM
GI50 (NCI-H23 lung): > 100 µM
TGI (NCI-H23 lung): > 100 µM
GI50 (UACC-62 melanoma): > 100 µM
TGI (UACC-62 melanoma): > 100 µM
GI50 (SW-620 colon): > 100 µM
TGI (SW-620 colon): > 100 µM
GI50 (HOP-62 NSCLC): > 100 µM
TGI (HOP-62 NSCLC): > 100 µM
GI50 (CCRF-CEM leukemia): > 100 µM
TGI (CCRF-CEM leukemia): > 100 µM
GI50 (SNB-75 CNS): > 100 µM
TGI (SNB-75 CNS): > 100 µM
GI50 (NCI-H226 lung): > 100 µM
TGI (NCI-H226 lung): > 100 µM
GI50 (SNB-19 CNS): > 100 µM
TGI (SNB-19 CNS): > 100 µM
GI50 (OVCAR-5 ovarian): > 100 µM
TGI (OVCAR-5 ovarian): > 100 µM
GI50 (MOLT-4 leukemia): 2.67 µM
TGI (MOLT-4 leukemia): > 100 µM
GI50 (CAKI-1 renal): > 100 µM
TGI (CAKI-1 renal): > 100 µM
GI50 (A549 NSCLC): > 100 µM
TGI (A549 NSCLC): > 100 µM
GI50 (T-47D breast): > 100 µM
TGI (T-47D breast): > 100 µM
GI50 (COLO 205 colon): > 100 µM
TGI (COLO 205 colon): > 100 µM
GI50 (SF-268 CNS): > 100 µM
TGI (SF-268 CNS): > 100 µM
GI50 (RPMI-8226 leukemia): 50.3 µM
TGI (RPMI-8226 leukemia): > 100 µM
GI50 (OVCAR-3 ovarian): > 100 µM
TGI (OVCAR-3 ovarian): > 100 µM
GI50 (NCI-H522 lung): > 100 µM
TGI (NCI-H522 lung): > 100 µM
GI50 (HCC-2998 colon): 67.4 µM
TGI (HCC-2998 colon): > 100 µM
GI50 (SF-295 CNS): > 100 µM
TGI (SF-295 CNS): > 100 µM
GI50 (MALME-3M melanoma): > 100 µM
TGI (MALME-3M melanoma): > 100 µM
GI50 (HL-60(TB) leukemia): 13.4 µM
TGI (HL-60(TB) leukemia): > 100 µM
GI50 (SN12C renal): > 100 µM
TGI (SN12C renal): > 100 µM
GI50 (MDA-MB-231 breast): > 100 µM
TGI (MDA-MB-231 breast): > 100 µM
GI50 (786-0 renal): > 100 µM
TGI (786-0 renal): > 100 µM
GI50 (BT-549 breast): > 100 µM
TGI (BT-549 breast): > 100 µM
GI50 (SK-MEL-28 melanoma): > 100 µM
TGI (SK-MEL-28 melanoma): > 100 µM
GI50 (MDA-MB-435): > 100 µM
TGI (MDA-MB-435): > 100 µM
GI50 (UO-31 renal): > 100 µM
TGI (UO-31 renal): > 100 µM
GI50 (EKVX NSCLC): > 100 µM
TGI (EKVX NSCLC): > 100 µM
GI50 (ACHN renal): > 100 µM
TGI (ACHN renal): > 100 µM
GI50 (SK-MEL-5 melanoma): > 100 µM
TGI (SK-MEL-5 melanoma): > 100 µM
GI50 (NCI-H460 lung): > 100 µM
TGI (NCI-H460 lung): > 100 µM
GI50 (MCF7 breast): > 100 µM
TGI (MCF7 breast): > 100 µM
GI50 (OVCAR-8 ovarian): > 100 µM
TGI (OVCAR-8 ovarian): > 100 µM
GI50 (NCI/ADR-RES ovarian): > 100 µM
TGI (NCI/ADR-RES ovarian): > 100 µM
GI50 (SR leukemia): 19.9 µM
TGI (SR leukemia): > 100 µM
GI50 (SK-OV-3 ovarian): > 100 µM
TGI (SK-OV-3 ovarian): > 100 µM
GI50 (HCT-15 colon): > 100 µM
TGI (HCT-15 colon): > 100 µM
GI50 (HT29 colon): > 100 µM
TGI (HT29 colon): > 100 µM
GI50 (IGROV1 ovarian): > 100 µM
TGI (IGROV1 ovarian): > 100 µM
GI50 (PC-3 prostate): 39 µM
TGI (PC-3 prostate): > 100 µM
GI50 (LOX IMVI melanoma): > 100 µM
TGI (LOX IMVI melanoma): > 100 µM
GI50 (SF-539 CNS): > 100 µM
TGI (SF-539 CNS): > 100 µM
GI50 (HS 578T breast): > 100 µM
TGI (HS 578T breast): > 100 µM
